Structures can show the parent of a compound that is named as a salt.
Target: T1, muscarinic M1 receptor (Homo sapiens, UniProt P11229)
T1 sequence (P11229 1-460): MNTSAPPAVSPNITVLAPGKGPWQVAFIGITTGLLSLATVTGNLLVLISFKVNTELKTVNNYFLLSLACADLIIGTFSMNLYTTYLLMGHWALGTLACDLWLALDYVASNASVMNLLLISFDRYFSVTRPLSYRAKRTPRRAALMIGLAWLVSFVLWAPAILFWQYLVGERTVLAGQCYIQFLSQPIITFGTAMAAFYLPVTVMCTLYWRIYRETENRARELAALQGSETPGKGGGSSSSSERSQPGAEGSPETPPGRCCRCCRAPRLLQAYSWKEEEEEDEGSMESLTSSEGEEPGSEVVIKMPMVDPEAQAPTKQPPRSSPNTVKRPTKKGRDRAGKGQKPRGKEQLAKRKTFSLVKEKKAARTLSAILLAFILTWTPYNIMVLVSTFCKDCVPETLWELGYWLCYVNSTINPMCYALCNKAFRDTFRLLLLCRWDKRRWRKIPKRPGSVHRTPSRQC
Assay: Allosteric potency EC50 for muscarinic M1 receptor (CHO pCRE-Luc reporter assay)
Assay type: cell-based
Settings: in presence of EC20 of acetylcholine; CHO cells, luciferase reporter, 4 hours
Procedure: Determination of Allosteric Potency EC50 Values for Muscarinic M1 Receptor:
A stable CHO cell line expressing recombinant human Muscarinic M1 receptor and pCRE-Luc reporter system was used for cell-based assay. The assay offers a non-radioactive based approach to determine binding of a compound to GPCRs. In this specific assay, the level of intracellular cyclic AMP which is modulated by activation or inhibition of the receptor is measured. The recombinant cells harbor luciferase reporter gene under the control of cyclic AMP response element.
The above cells were grown in 96 well clear bottom white plates in Hams F12 medium containing 10% fetal bovine serum (FBS). Prior to the addition of compounds or standard agonist, cells were serum starved overnight. Increasing concentrations of test compounds were added along with EC20 of acetylcholine in OptiMEM medium to the cells. The incubation was continued at 37° C. in CO2 incubator for 4 hours. Medium was removed and cells were washed with phosphate buffered saline. The cells were lysed and luciferase activity was measured in a Luminometer. Luminescence units were plotted against the compound concentrations using Graphpad software. EC50 values of the compounds were defined as the concentration required in stimulating the luciferase activity by 50% in presence of EC20 of acetylcholine and the results are provided in table 1.

| Structure (SMILES) | EC50 |
| --- | --- |
| O=C(N[C@@H]1CCOC[C@H]1O)c1cc(Cc2ccc(-c3cscn3)cc2)c2c(n1)CNCC2 (single isomer, unassigned; isomer-ii) [Example 97, trans-N-(3-Hydroxytetrahydropyran-4-yl)-4-[4-(thiazol-4-yl)benzyl]-5,6,7,8-tetrahydro[1,7]naphthyridine-2-carboxamide Hydrochloride (Isomer-II)] | 6 nM |
| Cn1ccc2c(Cc3ccnc(F)c3)cc(C(=O)NC3CCOCC3O)nc21 (single isomer, unassigned) [Example 45, Racemic cis-N-(3-Hydroxytetrahydropyran-4-yl)-4-(2-fluoropyridin-4-ylmethyl)-1-methyl-1H-pyrrolo[2,3-b]pyridine-6-carboxamide] | 3150 nM |
| CN1CCc2c(Cc3ccc(F)cc3)cc(C(=O)N[C@H]3CCCC[C@@H]3O)nc21 [Example 76, N-[(1S,2S)-2-Hydroxycyclohexyl]-4-(4-fluorobenzyl)-1-methyl-2,3-dihydro-1H-pyrrolo[2,3-b]pyridine-6-carboxamide] | 380 nM |
| Cn1ccc2c(Cc3cccc(F)c3F)cc(C(=O)N[C@@H]3CCOC[C@H]3O)nc21 (single isomer, unassigned; isomer-ii) [Example 44, trans-N-(3-Hydroxytetrahydropyran-4-yl)-4-(2,3-difluorobenzyl)-1-methyl-1H-pyrrolo[2,3-b]pyridine-6-carboxamide (Isomer-II)] | 748 nM |
| Cn1ccc2c(Cc3ccc(F)nc3)cc(C(=O)N[C@H]3CCCC[C@@H]3O)nc21 [Example 3, N-[(1S,2S)-2-Hydroxycyclohexyl]-4-(2-fluoropyridin-5-ylmethyl)-1-methyl-1H-pyrrolo[2,3-b]pyridine-6-carboxamide] | 977 nM |
| Cn1ccc2c(Cc3ccc(F)cc3)cc(C(=O)N[C@H]3CCOC[C@H]3O)nc21 (single isomer, unassigned; isomer-ii) [Example 37, cis-N-(3-Hydroxytetrahydropyran-4-yl)-4-(4-fluorobenzyl)-1-methyl-1H-pyrrolo[2,3-b]pyridine-6-carboxamide (Isomer-II)] | 1250 nM |
| Cn1ccc2c(Cc3ccc4ncsc4c3)cc(C(=O)N[C@H]3CCCC[C@@H]3O)nc21 [Example 12, N-[(1S,2S)-2-Hydroxycyclohexyl]-4-(benzothiazol-6-ylmethyl)-1-methyl-1H-pyrrolo[2,3-b]pyridine-6-carboxamide] | 306 nM |
| COc1ccc(Cc2cc(C(=O)N[C@H]3CCCC[C@@H]3O)nc3c2CCN3C)cc1 [Example 77, N-[(1S,2S)-2-Hydroxycyclohexyl]-4-(4-methoxybenzyl)-1-methyl-2,3-dihydro-1H-pyrrolo[2,3-b]pyridine-6-carboxamide] | 342 nM |
| CSc1ccc(Cc2cc(C(=O)N[C@H]3CCCC[C@@H]3O)nc3c2ccn3C)cn1 [Example 20, N-[(1S,2S)-2-Hydroxycyclohexyl]-4-(2-methylsulfanylpyridin-5-ylmethyl)-1-methyl-1H-pyrrolo[2,3-b]pyridine-6-carboxamide] | 315 nM |
| Cn1ccc2c(Cc3ccc(F)c(F)c3)cc(C(=O)N[C@H]3CCOC[C@H]3O)nc21 (single isomer, unassigned; isomer-ii) [Example 42, cis-N-(3-Hydroxytetrahydropyran-4-yl)-4-(3,4-difluorobenzyl)-1-methyl-1H-pyrrolo[2,3-b]pyridine-6-carboxamide (Isomer-II)] | 2290 nM |
| COc1ccc(Cc2cc(C(=O)N[C@H]3CCCC[C@@H]3O)nc3c2ccn3C)cc1 [Example 19, N-[(1S,2S)-2-Hydroxycyclohexyl]-4-(4-methoxybenzyl)-1-methyl-1H-pyrrolo[2,3-b]pyridine-6-carboxamide] | 1110 nM |
| Cn1ccc2c(Cc3cccc(F)c3)cc(C(=O)N[C@H]3CCCC[C@@H]3O)nc21 [Example 25, N-[(1S,2S)-2-Hydroxycyclohexyl]-4-(3-fluorobenzyl)-1-methyl-1H-pyrrolo[2,3-b]pyridine-6-carboxamide] | 362 nM |
| Cn1ccc2c(Cc3ccc(F)c(F)c3)cc(C(=O)N[C@@H]3CCOC[C@H]3O)nc21 (single isomer, unassigned; isomer-i) [Example 51, trans-N-(3-Hydroxytetrahydropyran-4-yl)-4-(3,4-difluorobenzyl)-1-methyl-1H-pyrrolo[2,3-b]pyridine-6-carboxamide (Isomer-I)] | 1820 nM |
| CN1CCOc2c(Cc3ccc(-c4cnn(C)c4)cc3)cc(C(=O)N[C@H]3CCCC[C@@H]3O)nc21 [Example 122, N-[(1S,2S)-2-Hydroxycyclohexyl]-8-[4-(1-methyl-1H-pyrazol-4-yl)benzyl]-4-methyl-2H-pyrido[3,2-b][1,4]oxazine-6-carboxamide] | 85 nM |
| Cn1cc(-c2ccc(Cc3cc(C(=O)N[C@H]4CCCC[C@@H]4O)nc4c3ccn4C)cn2)cn1 [Example 15, N-[(1S,2S)-2-Hydroxycyclohexyl]-4-[2-(1-methyl-1H-pyrazol-4-yl)pyridin-5-ylmethyl]-1-methyl-1H-pyrrolo[2,3-b]pyridine-6-carboxamide] | 38 nM |
| Cn1ccc2c(Cc3ccnc(F)c3)cc(C(=O)N[C@@H]3CCOC[C@H]3O)nc21 (single isomer, unassigned; isomer-i) [Example 39, trans-N-(3-Hydroxytetrahydropyran-4-yl)-4-(2-fluoropyridin-4-ylmethyl)-1-methyl-1H-pyrrolo[2,3-b]pyridine-6-carboxamide (Isomer-I)] | 968 nM |
| Cn1cc(-c2ccc(Cc3cc(C(=O)N[C@H]4CCCC[C@@H]4O)nc4c3CCNC4)cc2)cn1 [Example 90, N-[(1S,2S)-2-Hydroxycyclohexyl]-4-[4-(1-methyl-1H-pyrazol-4-yl)-benzyl-5,6,7,8-tetrahydro[1,7]naphthyridine-2-carboxamide Hydrochloride] | 18 nM |
| COc1ccc(Cc2cc(C(=O)N[C@H]3CCCC[C@@H]3O)nc3c2OCCN3C)cc1 [Example 127, N-[(1S,2S)-2-Hydroxycyclohexyl]-8-(4-methoxybenzyl)-4-methyl-2H-pyrido[3,2-b][1,4]oxazine-6-carboxamide] | 946 nM |
| Cc1cc(Cc2cc(C(=O)N[C@H]3CCCC[C@@H]3O)nc3c2ccn3C)ccn1 [Example 17, N-[(1S,2S)-2-Hydroxycyclohexyl]-4-(2-methylpyridin-4-ylmethyl)-1-methyl-1H-pyrrolo[2,3-b]pyridine-6-carboxamide] | 1630 nM |
| Cn1ccc2c(Cc3ccc(-c4ccc(F)nc4)nc3)cc(C(=O)N[C@H]3CCCC[C@@H]3O)nc21 [Example 13, N-[(1S,2S)-2-Hydroxycyclohexyl]-4-(2′-fluoro-[2,5]bipyridinyl-5-ylmethyl)-1-methyl-1H-pyrrolo[2,3-b]pyridine-6-carboxamide] | 617 nM |
| Cn1ccc2c(Cc3ccc(F)c(F)c3)cc(C(=O)N[C@H]3CCOC[C@H]3O)nc21 (single isomer, unassigned; isomer-i) [Example 41, cis-N-(3-Hydroxytetrahydropyran-4-yl)-4-(3,4-difluorobenzyl)-1-methyl-1H-pyrrolo[2,3-b]pyridine-6-carboxamide (Isomer-I)] | 1230 nM |
| Cn1ccc2c(Cc3ccc(-c4cscn4)cc3)cc(C(=O)N[C@H]3CCCC[C@@H]3O)nc21 [Example 5, N-[(1S,2S)-2-Hydroxycyclohexyl]-4-(4-thiazol-4-ylbenzyl)-1-methyl-1H-pyrrolo[2,3-b]pyridine-6-carboxamide] | 130 nM |
| O=C(N[C@H]1CCCC[C@@H]1O)c1cc(Cc2ccc(Cl)nc2)c2ccn(CCF)c2n1 [Example 23, N-[(1S,2S)-2-Hydroxycyclohexyl]-4-(2-chloropyridin-5-ylmethyl)-1-(2-fluoroethyl)-1H-pyrrolo[2,3-b]pyridine-6-carboxamide] | 727 nM |
| Cn1cc(-c2ccc(Cc3cc(C(=O)N[C@H]4CCCC[C@@H]4O)nc4c3ccn4C)cc2)cn1 [Example 7, N-[(1S,2S)-2-Hydroxycyclohexyl]-4-[4-(1-methyl-1H-pyrazol-4-yl)benzyl]-1-methyl-1H-pyrrolo[2,3-b]pyridine-6-carboxamide] | 8 nM |
| Cn1ccc2c(Cc3ccc(F)cc3)cc(C(=O)N[C@H]3CCCC[C@@H]3O)nc21 [Example 4, N-[(1S,2S)-2-Hydroxycyclohexyl]-4-(4-fluorobenzyl)-1-methyl-1H-pyrrolo[2,3-b]pyridine-6-carboxamide] | 811 nM |
| Cn1ccc2c(Cc3cccnc3)cc(C(=O)N[C@H]3CCCC[C@@H]3O)nc21 [Example 27, N-[(1S,2S)-2-Hydroxycyclohexyl]-4-(pyridin-3-ylmethyl)-1-methyl-1H-pyrrolo[2,3-b]pyridine-6-carboxamide] | 234 nM |
| Cn1ccc2c(Cc3ccc(-c4cscn4)cc3)cc(C(=O)NCC3(O)CCCC3)nc21 [Example 26, N-(1-Hydroxycyclopentylmethyl)-4-[4-(thiazol-4-yl)benzyl]-1-methyl-1H-pyrrolo[2,3-b]pyridine-6-carboxamide] | 221 nM |
